Results published in paper PMC4965013, “Open Source Drug Discovery with the Malaria Box Compound Collection for Neglected Diseases and Beyond” (PLoS Pathogens, 2016).

How the values were obtained:
[1] = system: P. falciparum 3D7 trophozoites; assay: Metabolomic fingerprint profiling LC-MS; assay type: cell-based, Plasmodium falciparum; set-up: UDP-D-glucose / ADP-D-glucose: unit not given here; details: for Acetyllysine / N-acetyl-L-ornithine / N-carbamoyl-L-aspartate / NADPH / dAMP / dCMP / dTDP / dTMP / dTTP / dihydroorotate / orotate / DLH / DLS/SDL/SID / PD / PEE / PVNF / 3-phosphoglycerate / ADP-D-glucose / ATP / CDP / D-sedoheptulose-1/7-phosphate / FAD / GMP / NAD+ / NADP+ / Octoluse Bisphosphate / Pyroglutamic acid / UDP-D-glucose / UDP-D-glucuronate / UDP-N-acetyl-glucosamine / UDP / UMP / UTP / a-ketoglutarate / citrate/isocitrate / cytidine / dATP / dGMP/AMP / fumarate / glucose-1/6-phosphate / glycerate / guanine / guanosine / hypoxanthine / indole / inosine / nicotinate / ornithine / phosphoenolpyruvate / pyruvate / ribose-phosphate / sarcosine/alanine / sn-glycerol-3-phosphate / succinate/methylmalonic acid / uridine / xanthosine: S2 Table Metabolomics; for Acetyllysine: metabolite Acetyllysine; for N-acetyl-L-ornithine: metabolite N-acetyl-L-ornithine; for N-carbamoyl-L-aspartate: metabolite N-carbamoyl-L-aspartate; for NADPH: metabolite NADPH; for dAMP: metabolite dAMP; for dCMP: metabolite dCMP; for dTDP: metabolite dTDP; for dTMP: metabolite dTMP; for dTTP: metabolite dTTP; for dihydroorotate: metabolite dihydroorotate; for orotate: metabolite orotate; for DLH: peptide DLH; for DLS/SDL/SID: peptide DLS/SDL/SID; for PD: peptide PD; for PEE: peptide PEE; for PVNF: peptide PVNF; for 3-phosphoglycerate: metabolite 3-phosphoglycerate; for ADP-D-glucose: metabolite ADP-D-glucose; for ATP: metabolite ATP; for CDP: metabolite CDP; for CDP / D-sedoheptulose-1/7-phosphate / GMP / Octoluse Bisphosphate / UDP / UMP / UTP / citrate/isocitrate / dGMP/AMP / fumarate / glucose-1/6-phosphate / glycerate / guanine / guanosine / inosine / pyruvate / sarcosine/alanine / succinate/methylmalonic acid / uridine / xanthosine: change in metabolite level after compound treatment; for D-sedoheptulose-1/7-phosphate: metabolite D-sedoheptulose-1/7-phosphate; for FAD: metabolite FAD; for GMP: metabolite GMP; for NAD+: metabolite NAD+; for NADP+: metabolite NADP+; for Octoluse Bisphosphate: metabolite Octoluse Bisphosphate; for Pyroglutamic acid: metabolite Pyroglutamic acid; for UDP-D-glucose: metabolite UDP-D-glucose; for UDP-D-glucuronate: metabolite UDP-D-glucuronate; for UDP-N-acetyl-glucosamine: metabolite UDP-N-acetyl-glucosamine; for UDP: metabolite UDP; for UMP: metabolite UMP; for UTP: metabolite UTP; for a-ketoglutarate: metabolite a-ketoglutarate; for citrate/isocitrate: metabolite citrate/isocitrate; for cytidine: metabolite cytidine; for dATP: metabolite dATP; for dGMP/AMP: metabolite dGMP/AMP; for fumarate: metabolite fumarate; for glucose-1/6-phosphate: metabolite glucose-1/6-phosphate; for glycerate: metabolite glycerate; for guanine: metabolite guanine; for guanosine: metabolite guanosine; for hypoxanthine: metabolite hypoxanthine; for indole: metabolite indole; for inosine: metabolite inosine; for 2_3-Diphosphoglyceric acid / 4-phosphopantothenate / 6-phospho-D-gluconate / FMN / IMP / Pyrophosphate / Sedoheptoluse bisphosphate / cyclic-AMP / glutathione disulfide / lactate / myo-inositol: metabolite level change after treatment; for nicotinate: metabolite nicotinate; for ornithine: metabolite ornithine; for phosphoenolpyruvate: metabolite phosphoenolpyruvate; for pyruvate: metabolite pyruvate; for ribose-phosphate: metabolite ribose-phosphate; for sarcosine/alanine: metabolite sarcosine/alanine; for sn-glycerol-3-phosphate: metabolite sn-glycerol-3-phosphate; for succinate/methylmalonic acid: metabolite succinate/methylmalonic acid; for uridine: metabolite uridine; for xanthosine: metabolite xanthosine
P. falciparum = assay: EC50 listed in S2 Table Metabolomics (used to set the concentration tested); assay type: cell-based; details: Plasmodium falciparum; EC50 used for Factor_XEC50 in metabolomics; read-out: EC50_nM

CCOC(=O)C1=C(c2ccccc2)N=c2sc(=Cc3cc(C)n(-c4ccc(F)cc4)c3C)c(=O)n2C1c1cccc(OC)c1OC (stereo not shown) [MMV666601] was tested, and the Acetyllysine [1] was -0.456, the N-acetyl-L-ornithine [1] was -0.1781 and the N-carbamoyl-L-aspartate [1] was 0.03088. It also gave an NADPH [1] of 0.275, a dAMP [1] of -0.2186 and a dCMP [1] of 0.01598. The dTDP [1] was -0.2912, the dTMP [1] was -0.2825 and the dTTP [1] was -0.02615. The dihydroorotate [1] was 0.05127, the orotate [1] was -0.2921 and the DLH [1] was -0.04885. For the same compound, the DLS/SDL/SID [1] was -0.07047, the PD [1] was -0.02012 and the PEE [1] was -0.1327. For the same compound, the PVNF [1] was -0.1227, the 3-phosphoglycerate [1] was 0.04151 and the ADP-D-glucose [1] was -0.1367. It also gave an ATP [1] of 0.1113, a CDP [1] of -0.2732 and a D-sedoheptulose-1/7-phosphate [1] of -0.3701. For the same compound, the FAD [1] was 0.009316, the GMP [1] was 0.1751 and the “NAD+” value [1] was 0.04978. The “NADP+” value [1] was -0.07076, the “Octoluse Bisphosphate” value [1] was -0.0546 and the Pyroglutamic acid [1] was 0.2145. For the same compound, the UDP-D-glucose [1] was -0.01836, the UDP-D-glucuronate [1] was -0.09865 and the UDP-N-acetyl-glucosamine [1] was -0.01529. It also gave a UDP [1] of -0.3315, a UMP [1] of 0.1049 and a UTP [1] of 0.1938. For the same compound, the a-ketoglutarate [1] was 0.0362, the citrate/isocitrate [1] was 0.4989 and the cytidine [1] was 0.1663. The dATP [1] was 0.2724, the dGMP/AMP [1] was -0.3927 and the fumarate [1] was -0.02339. The glucose-1/6-phosphate [1] was -0.02704, the glycerate [1] was 0.006669 and the guanine [1] was -0.1817. It also gave a guanosine [1] of -0.06753, a hypoxanthine [1] of 0.09643 and an indole [1] of 0.007804. It also gave an inosine [1] of 0, a 2_3-Diphosphoglyceric acid [1] of -0.2012 and a 4-phosphopantothenate [1] of -0.1061. The 6-phospho-D-gluconate [1] was 0.004224, the FMN [1] was -0.01347 and the IMP [1] was -0.1927. It also gave a Pyrophosphate [1] of -0.04369, a Sedoheptoluse bisphosphate [1] of -0.08738 and a cyclic-AMP [1] of 0.1818. The glutathione disulfide [1] was -0.01346, the lactate [1] was -0.02544 and the myo-inositol [1] was -0.1142. The nicotinate [1] was 0.07511, the ornithine [1] was -0.266 and the phosphoenolpyruvate [1] was -0.02402. For the same compound, the pyruvate [1] was -0.028, the ribose-phosphate [1] was 0.1121 and the sarcosine/alanine [1] was -0.3168. It also gave a sn-glycerol-3-phosphate [1] of -0.06233, a succinate/methylmalonic acid [1] of 0.1961 and a uridine [1] of -0.1775. For the same compound, the xanthosine [1] was 0.2404 and the EC50 (P. falciparum) was 154 nM.
O=[N+]([O-])c1ccc(C=NNc2nc3ccccc3[nH]2)cc1 [MMV666607] was tested, and the Acetyllysine [1] was -1.035, the N-acetyl-L-ornithine [1] was -1.151 and the N-carbamoyl-L-aspartate [1] was 0.2298. The NADPH [1] was 4.216, the dAMP [1] was 0.3403 and the dCMP [1] was 0.1583. For the same compound, the dTDP [1] was 0.005163, the dTMP [1] was -0.3628 and the dTTP [1] was 0.4469. The dihydroorotate [1] was 0.1326, the orotate [1] was 0.05442 and the DLH [1] was -0.8554. For the same compound, the DLS/SDL/SID [1] was -0.615, the PD [1] was -0.4537 and the PEE [1] was -0.9074. The PVNF [1] was -1.15, the 3-phosphoglycerate [1] was 0.2233 and the ADP-D-glucose [1] was 0.2125. For the same compound, the ATP [1] was 0.06188, the CDP [1] was -0.1249 and the D-sedoheptulose-1/7-phosphate [1] was -0.1388. For the same compound, the FAD [1] was -0.1276, the GMP [1] was -0.06014 and the “NAD+” value [1] was -0.1512. The “NADP+” value [1] was 0.1119, the “Octoluse Bisphosphate” value [1] was -0.09651 and the Pyroglutamic acid [1] was -0.1918. It also gave a UDP-D-glucose [1] of -0.06053, a UDP-D-glucuronate [1] of -0.006477 and a UDP-N-acetyl-glucosamine [1] of -0.08493. For the same compound, the UDP [1] was -0.2957, the UMP [1] was -0.07591 and the UTP [1] was 0.3053. For the same compound, the a-ketoglutarate [1] was -0.2127, the citrate/isocitrate [1] was -0.1765 and the cytidine [1] was -0.4158. It also gave a dATP [1] of 0.1896, a dGMP/AMP [1] of 0.09335 and a fumarate [1] of 0.008021. For the same compound, the glucose-1/6-phosphate [1] was -0.3879, the glycerate [1] was -0.4956 and the guanine [1] was -0.1214. For the same compound, the guanosine [1] was 0.1402, the hypoxanthine [1] was -0.3554 and the indole [1] was -0.1954. It also gave an inosine [1] of -0.3969, a 2_3-Diphosphoglyceric acid [1] of 0.1914 and a 4-phosphopantothenate [1] of 0.07423. For the same compound, the 6-phospho-D-gluconate [1] was 0.02335, the FMN [1] was -0.06375 and the IMP [1] was 0.01329. For the same compound, the Pyrophosphate [1] was 0.2379, the Sedoheptoluse bisphosphate [1] was 0.02366 and the cyclic-AMP [1] was 0.0305. For the same compound, the glutathione disulfide [1] was 0.01063, the lactate [1] was -0.3072 and the myo-inositol [1] was -0.4133. It also gave a nicotinate [1] of 0.09712, an ornithine [1] of -0.3198 and a phosphoenolpyruvate [1] of 0.2853. The pyruvate [1] was -0.3236, the ribose-phosphate [1] was 0.1666 and the sarcosine/alanine [1] was -0.06565. It also gave a sn-glycerol-3-phosphate [1] of -0.0116, a succinate/methylmalonic acid [1] of 0.01013 and a uridine [1] of -0.4646. The xanthosine [1] was 0.06506 and the EC50 (P. falciparum) was 142 nM.
